The text below walks through data of article PMC3362524 (The Journal of General Physiology, 2012).

Type in all cases: cell-based
Assay [1] has as its target T1, NaChBac (voltage-gated sodium channel from Bacillus halodurans) (Halalkalibacterium halodurans, UniProt Q9KCR8).
T1 sequence (Q9KCR8 1-274): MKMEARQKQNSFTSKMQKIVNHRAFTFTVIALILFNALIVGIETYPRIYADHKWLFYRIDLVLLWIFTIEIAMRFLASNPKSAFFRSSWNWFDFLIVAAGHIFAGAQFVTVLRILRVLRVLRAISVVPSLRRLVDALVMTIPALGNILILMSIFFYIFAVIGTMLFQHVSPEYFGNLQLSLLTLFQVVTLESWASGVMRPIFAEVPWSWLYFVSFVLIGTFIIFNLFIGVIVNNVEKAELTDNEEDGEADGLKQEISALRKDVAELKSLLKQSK

For assay [2], the target named is T2, NaChBac (voltage-gated sodium channel from Bacillus halodurans) (Halalkalibacterium halodurans, UniProt Q9KCR8, T220A).
T2 sequence (Q9KCR8 1-274 T220A): T1 sequence (Q9KCR8 1-274) with T220A
Kind of assay: patch clamp in HEK-293 cells, peak current concentration response.

Assay [3] addresses T1, NaChBac (voltage-gated sodium channel from Bacillus halodurans). This is another data set of the same source.

Numbering of substitutions follows the chain as printed. Read-outs that look alike come from different tables or passages of the source.

Turning to `CCN(CC)CC(=O)Nc1c(C)cccc1C` [lidocaine], the results for the IC50 in assay [1] and in assay [2] were roughly 260 µM and 765 ± 76.3 µM, respectively.
In assay [1], `COc1ccccc1OCC(O)CN1CCN(CC(=O)Nc2c(C)cccc2C)CC1` (stereo not shown) [ranolazine] returned an IC50 of roughly 60 µM.
For `CCOC(=O)c1ccc(N)cc1` [benzocaine], inhibition in assay [3] was half-maximal at 650 µM (IC50).
